Results on 29 compounds are retold here after article PMC8899614, “Triterpenoid Saponins From the Fruit of Acanthopanax senticosus (Rupr. & Maxim.) Harms” (Frontiers in Chemistry, 2022).

One data set deals with BV2 microglia. In words: Cytotoxicity on BV2 microglia by CCK-8 assay. Particulars: read-out: Cytotoxic activities on BV2 cells, IC50; BV2 cells, 24 h, CCK-8, OD 450 nm, repeated three times.
The test system of data set [1] is NO production in LPS-induced BV2 microglia. Description: NO production inhibition in LPS-induced BV2 microglia (Griess reaction). Particulars: for IC50: read-out: Inhibitory effects on NO in LPS-induced BV-2 cells, IC50; for Inhibitory effect on neuroinflammation (in words): LPS-induced BV2 microglia neuroinflammation model. In kind it is cell-based. How it is done:
The BV2 microglia cells were plated into a 96-well plate. After adding LPS (1 μg/ml) to each well for 12 h, it was treated with or without compounds of various concentrations (0, 100, 200, 300, 400, and 600 μM) for 12 h. The NO production in the supernatant was measured by the Griess reaction. The absorbance at 570 nm was measured using a microplate reader. The NO concentration and the inhibitory rate were calculated through a calibration curve. Quercetin was used as the positive control. Experiments were repeated three times.

Data set [2] can be described thus: Cytotoxicity on BV2 microglia by CCK-8 assay. The conditions noted are these: mouse, BV2 microglia cells.
Experimental: A drug-containing medium (0, 50, 100, 200, 400, and 600 μM) was added to each well of the administration group, and an equal volume of medium was also added to the blank group, and they were incubate at 37°C and 5% CO2 for 24 h. After the culture, 10 μl of CCK-8 was added to each well and incubated for 1–4 h at 37°C and 5% CO2. The absorbance (OD) value of each well at 450 nm was detected with a microplate reader, repeating three times, and its IC50 value was calculated.
[3] abbreviates: LPS 1 μg/ml, Griess reaction, n = 3, x ± s, IC50 > 100 μM deemed inactive.

Like-named read-outs stand apart in the source and are kept apart here.

“3-O-6′-O-methyl-β-D-glucuronopy-ranoside of gypsogenin [Compound 15]”: the IC50 was 157 ± 11 µM in the data set on BV2 microglia and more than 100 µM in data set [1] (setting [3]).

With “3-O-α-arabinopyranosyl-(1→2)-β-glucopyranoside-30-norolean-12,20(29)-dien-28-oic acid [Compound 28]”, the IC50 in the data set with BV2 microglia was 565 ± 48 µM; in data set [1] (setting [3]), more than 100 µM.

For “3-O-α-rhamnopyranose- (1→2)-α-arabinopyranosyl-29-hydroxy-olean-12-en-28-oic acid [Compound 17]”, the IC50 in the data set on BV2 microglia was 235 ± 21.1 µM; in data set [1] (setting [3]) it was more than 100 µM.

In the case of “3-O-β-D-(6′-O-methyl-glucuronopyranosyl) oleanolic acid [Compound 16]”, the IC50 in the data set with BV2 microglia stood at 102 ± 9.77 µM. For the same compound, the “Inhibitory effect on neuroinflammation (in words)” value (from here on “Inhibitory effect”) in data set [1] was “moderate inhibitory effects on neuroinflammation”.

For the compound “3-O-β-D-glucuronopyranosyl-3β,16α-dihydroxyolean-12-en-28-oic acid [Compound 10]”, the IC50 in the data set with BV2 microglia came out at 215 ± 20.2 µM. For the same compound, the “Inhibitory effect” value in data set [1] is listed as “moderate inhibitory effects on neuroinflammation”.

Consider “3-[(O-β-D-glucopyranosyl-(1→3)-α-L-arabinopyranosyl)oxy]-30- noroleana-12,20(29)-dien-28-oic acid [Compound 29]”, for which the half-inhibitory concentration (IC50) in the data set with BV2 microglia is 127 ± 10.6 µM; in data set [1] (setting [3]), more than 100 µM.

Consider `CC1(CO)CCC2(C(=O)O)CCC3(C)C(=CCC4C5(C)CCC(OC6OCC(O)C(OC7OC(CO)C(O)C(O)C7O)C6O)C(C)(C)C5CCC43C)C2C1` (stereo not drawn) [Compound 1, 3-O-β-glucopyranosyl-(1→3)-β-arabinopyranosyl-29-hydroxy-olean-12-en-28-oic acid], for which it took 143 ± 10.9 µM to reach half-maximal inhibition in data set [2] (IC50 at 24 h). The IC50 in data set [1] (Mus musculus, BV-2) is more than 100 µM.

`CCOC(=O)C1OC(OC2CCC3(C)C(CCC4(C)C3CC=C3C5CC(C)(C)CCC5(C(=O)OC5OC(CO)C(O)C(O)C5O)CCC34C)C2(C)CO)C(O)C(O)C1O` [Compound 2, 3-O-β-D-6′-ethyl-glucuronopyranosyl-23-hydroxy-olean-12-en-28-β-D-glucopyranosyl]: in data set [2], it took 157 ± 12.7 µM to reach half-maximal inhibition (IC50 at 24 h). The IC50 in data set [1] (Mus musculus, BV-2) was more than 100 µM.

On to `CC1OC(OC2C(OC3CCC4(C)C(CCC5(C)C4CC=C4C6CC(C)(O)CCC6(C(=O)O)CCC45C)C3(C)C)OCC(O)C2O)C(O)C(O)C1O` [Compound 3, 3β-[(α-L-rhamnopyranosyl-(1→2)-α-L-arabinopyranosyl)oxy]-20α,30-dihydroxy-norolean-12-en-28-oic acid], for which, in data set [2], the half-maximal inhibitory concentration (IC50) at 24 h was 150 ± 13.6 µM. Moreover, the IC50 in data set [1] (Mus musculus, BV-2) was more than 100 µM.

Consider `CC1(C(=O)O)CCC2(C(=O)O)CCC3(C)C(=CCC4C5(C)CCC(OC6OCC(O)C(O)C6OC6OC(CO)C(O)C(O)C6O)C(C)(C)C5CCC43C)C2C1` [Compound 4, 3β-[(O-β-D-glucopyranosyl-(1→2)-α-L-arabinopyranosyl)oxy]olean12-ene-28,29-dioic acid], for which the IC50 at 24 h in data set [2] came out at 246 ± 21.2 µM. Besides, the IC50 in data set [1] (Mus musculus, BV-2) is more than 100 µM.

As for `COC(=O)C1OC(OC2CCC3(C)C(CCC4(C)C3CCC3C5=CC(C)(C)CCC5(C(=O)O)CCC34C)C2(C)CO)C(O)C(O)C1O` [Compound 5, 3β,23-dihydroxyolean-18-en-28-oic acid 3-O-β-D-glucuronopyranoside-6′-O-methyl ester], in data set [2], the IC50 at 24 h was found to be 236 ± 20.2 µM. Moreover, the “Inhibitory effect” value in data set [1] is “moderate inhibitory effects on neuroinflammation”. Moreover, the IC50 in data set [1] (Mus musculus, BV-2) is less than 100 µM.

Regarding `CC1(C)CC[C@]2(C(=O)O)CC[C@]3(C)C(=CC[C@@H]4[C@@]5(C)CC[C@H](O[C@@H]6OC[C@H](O)[C@H](O)[C@H]6O)[C@@](C)(CO)[C@@H]5CC[C@]43C)[C@@H]2C1` [Compound 7, hederagenin glycosides 3-O-α-L-arabinopyranoside], the figures for the IC50 (with BV2 microglia; in data set [1] (setting [3])) were 124 ± 10.6 µM and more than 100 µM, respectively.

Regarding `CC1(C)CC[C@]2(C(=O)O)CC[C@]3(C)C(=CC[C@@H]4[C@@]5(C)CC[C@H](O[C@@H]6O[C@H](C(=O)O)[C@@H](O)[C@H](O)[C@H]6O)C(C)(C)[C@@H]5CC[C@]43C)[C@@H]2C1` [Compound 8, oleanolic acid 3-O-β-D-glucuronopyranoside], the IC50 with BV2 microglia is 107 ± 9.59 µM; in data set [1] (setting [3]), more than 100 µM.

On to `CC1(C)CC[C@]2(C(=O)O)CC[C@]3(C)C(=CC[C@@H]4[C@@]5(C)CCC(O[C@@H]6O[C@H](C(=O)O)[C@@H](O)[C@H](O)[C@H]6O)[C@@](C)(C=O)[C@@H]5CC[C@]43C)C2C1` (stereo partly shown) [Compound 11, gypsogenin 3-O-glucuronide], for which the figures for the IC50 (in the data set with BV2 microglia; in data set [1] (setting [3])) were 402 ± 39.5 µM and more than 100 µM, respectively.

With `C[C@@H]1O[C@@H](O[C@H]2[C@H](O[C@H]3CC[C@]4(C)[C@H]5CC=C6[C@@H]7CC(C)(C)CC[C@]7(C(=O)O)CC[C@@]6(C)[C@]5(C)CC[C@H]4C3(C)C)OC[C@H](O)[C@@H]2O)[C@H](O)[C@H](O)[C@H]1O` [Compound 18, 3-O-[α-L-rhamnopyranosyl-(1→2)-α-L-arabinopyranosyl] oleanolic acid], the IC50 was 204 ± 19.8 µM in the data set on BV2 microglia and more than 100 µM in data set [1] (setting [3]).

With `CC1(C)CC[C@]2(C(=O)O[C@@H]3O[C@H](CO)[C@@H](O)[C@H](O)[C@H]3O)CC[C@]3(C)C(=CC[C@@H]4[C@@]5(C)CC[C@H](O[C@@H]6OC[C@H](O)[C@H](O)[C@H]6O)[C@@](C)(CO)[C@@H]5CC[C@]43C)[C@@H]2C1` [Compound 19, HN-saponin F], the figures for the IC50 (in the data set on BV2 microglia; in data set [1] (setting [3])) were 466 ± 35.1 µM and more than 100 µM, respectively.

`CC1(C)CC[C@]2(C(=O)O)CC[C@]3(C)C(=CC[C@@H]4[C@@]5(C)CC[C@H](O[C@@H]6OC[C@H](O)[C@H](O)[C@H]6O[C@@H]6O[C@H](CO)[C@@H](O)[C@H](O)[C@H]6O)C(C)(C)[C@@H]5CC[C@]43C)[C@@H]2C1` [Compound 20, saponin PE]: the IC50 with BV2 microglia is 136 ± 10.6 µM; in data set [1] (setting [3]), more than 100 µM.

With `CC1(C)CCC2(C(=O)O)CCC3(C)C(=CCC4C5(C)CCC(OC6OCC(O)C(OC7OC(CO)C(O)C(O)C7O)C6O)C(C)(C)C5CCC43C)C2C1` [Compound 21, oleanolic acid 3-O-β-D-glucopyranosyl (1→3)-α-L-arabinopyranoside], in the data set with BV2 microglia, the IC50 was found to be 306 ± 28 µM.

For the compound `CC1(C)CC[C@]2(C(=O)O)CC[C@]3(C)C(=CC[C@@H]4[C@@]5(C)CC[C@H](O[C@@H]6O[C@H](CO)[C@@H](O)[C@H](O)[C@H]6O[C@@H]6O[C@H](CO)[C@@H](O)[C@H](O)[C@H]6O)C(C)(C)[C@@H]5CC[C@]43C)[C@@H]2C1` [Compound 24, 3-O-β-D-glucopyranosyl-(1→2)-β-D-glucopyranosyl oleanolic acid], the results for the IC50 (in the data set with BV2 microglia; in data set [1] (setting [3])) were 189 ± 15.2 µM and more than 100 µM, respectively.

Turning to `CC1OC(OC2C(OC3CCC4(C)C(CCC5(C)C4CC=C4C6CC(C)(C)CCC6(C(=O)OC6OC(CO)C(O)C(O)C6O)CCC45C)C3(C)C)OCC(O)C2O)C(O)C(O)C1O` [Compound 26, oleanolic acid 3-O-α-L-rhamnopyranosyl(1→2)-α-L-arabinopyranosyl-28-O-β-D-glucopyranosyl ester], in the data set on BV2 microglia, the IC50 amounted to 160 ± 13.5 µM.

For `O=c1c(O)c(-c2ccc(O)c(O)c2)oc2cc(O)cc(O)c12` [Quercetin, reference compound], the IC50 in data set [1] (Mus musculus, BV-2) was determined as 10.5 ± 1.07 µM.

On to HN-saponin D1 [Compound 6], for which the values for the IC50 (with BV2 microglia; in data set [1] (setting [3])) were 108 ± 8.24 µM and more than 100 µM, respectively.

HN-saponin K [Compound 9]: the IC50 is 241 ± 18.6 µM in the data set on BV2 microglia and more than 100 µM in data set [1] (setting [3]).

With elatoside G [Compound 12], the IC50 in the data set with BV2 microglia was 264 ± 22.9 µM. In addition, in data set [1], the “Inhibitory effect” value was “moderate inhibitory effects on neuroinflammation”.

Turning to “hederagenin-3-O-β-D- glucuronopyranoside 6′-O-methyl ester [Compound 13]”, in data set [1], the “Inhibitory effect” value is recorded as “moderate inhibitory effects on neuroinflammation”.

Regarding lucyoside F [Compound 22], the IC50 in the data set on BV2 microglia is 146 ± 12.7 µM; in data set [1] (setting [3]), more than 100 µM.

Consider lucyoside H [Compound 23], for which the concentration for half-maximal inhibition (IC50) in the data set with BV2 microglia was 131 ± 10 µM; in data set [1] (setting [3]), more than 100 µM.

Take paritriside E [Compound 27]: the IC50 in the data set with BV2 microglia was 133 ± 11.8 µM; in data set [1] (setting [3]) it was more than 100 µM.

Take “tragopogonsaponin A methyl ester [Compound 14]”: the IC50 in the data set on BV2 microglia is 585 ± 45.6 µM; in data set [1] (setting [3]) it was more than 100 µM.
